From ChEMBL document CHEMBL1122781, “[(Aminomethyl)aryloxy]acetic acid esters. A new class of high-ceiling diuretics. 1. Effects of nitrogen and aromatic nuclear substitution” (J Med Chem, 1984)

Experiments:
Rattus norvegicus [1] = experiment: Oral dose necessary to produce excretion of 2 mequiv of Na+/kg in rat urine in a 4-hr period after oral administration; inactive; format: ADME, organism-based; conditions: in vivo
Rattus norvegicus [2] = experiment: Oral dose necessary to produce an excretion of 2 mequiv of Na+/kg in the rat urine in the 4-h period after peroral administration; format: ADME, organism-based; conditions: in vivo
Rattus norvegicus [3] = experiment: Percent change of arterial blood pressure in spontaneously hypertensive rats at the dose of 30 mg/kg (p.o.) after 6 hr (control BP(mm Hg)=210); format: functional; conditions: route oral
Rattus norvegicus [4] = experiment: Percent change of arterial blood pressure in spontaneously hypertensive rats at the dose of 30 mg/kg (p.o.) after […] (control BP(mm Hg)=210); format: functional; conditions: route oral
Rattus norvegicus [5] = experiment: Percent change of arterial blood pressure in spontaneously hypertensive rats at the dose of 300 mg/kg (p.o.) after […] (control BP(mm Hg)=214); format: functional; conditions: route oral
Rattus norvegicus [6] = experiment: Percent change of arterial blood pressure in spontaneously hypertensive rats at the dose of 300 mg/kg (p.o.) after 24 h (control BP(mm Hg)=214); format: functional; conditions: route oral
Rattus norvegicus [7] = experiment: Percent change of arterial blood pressure in spontaneously hypertensive rats at the dose of 100 mg/kg (p.o.) after 6 hr (control BP(mm Hg)=206); format: functional; conditions: route oral
Rattus norvegicus [8] = experiment: Percent change of arterial blood pressure in spontaneously hypertensive rats at the dose of 100 mg/kg (p.o.) after […] (control BP(mm Hg)=206); format: functional; conditions: route oral
Rattus norvegicus [9] = experiment: Percent change of arterial blood pressure in spontaneously hypertensive rats at the dose of 100 mg/kg (p.o.) after 24 hr (control BP(mm Hg)=206); format: functional; conditions: route oral
Rattus norvegicus [10] = experiment: Percent change of arterial blood pressure in spontaneously hypertensive rats at the dose of 300 mg/kg (p.o.) after 6 hr (control BP(mm Hg)=214); format: functional; conditions: route oral
Rattus norvegicus [11] = experiment: Percent change of arterial blood pressure in spontaneously hypertensive rats at the dose of 30 mg/kg (p.o.) after 24 hr (control BP(mm Hg)=210); format: functional; conditions: route oral

CCOC(=O)COc1ccc(C(=O)c2ccc(O)c(C(=O)O)c2)c(Cl)c1Cl
ED2 (Rattus norvegicus [1]): Not Active

CCOC(=O)COc1ccc(C(=O)c2ccc(O)c(CO)c2)c(Cl)c1Cl
ED2 (Rattus norvegicus [1]): Not Active

CCOC(=O)COc1ccc(C(=O)c2cc(CN3CCS(=O)(=O)CC3)c(O)c(CN3CCS(=O)(=O)CC3)c2)c(Cl)c1Cl
ED2 (Rattus norvegicus [1]): Not Active

CCOC(=O)COc1ccc(C(=O)c2ccc(O)c(CNC(C)=O)c2)c(Cl)c1Cl
ED2 (Rattus norvegicus [1]): Not Active

CCOC(=O)COc1ccc(C(=O)c2ccc3c(c2)CNC(=O)O3)c(Cl)c1Cl
ED2 (Rattus norvegicus [1]): Not Active

CN(C)Cc1cc(C(=O)c2ccc(OCC(=O)O)c(Cl)c2Cl)ccc1O
ED2 (Rattus norvegicus [1]): Not Active

CCOC(=O)COc1ccc(C(=O)c2ccc(O)c(C(N)=O)c2)c(Cl)c1Cl
ED2 (Rattus norvegicus [1]): Not Active

CCOC(=O)COc1ccc(C(=O)c2ccc(O)c(CN=C(N)N)c2)c(Cl)c1Cl
ED2 (Rattus norvegicus [2]): 34 mg/kg

CCOC(=O)COc1ccc(C(=O)c2ccc(O)c(CN3CCS(=O)(=O)CC3)c2)c(Cl)c1Cl
ED2 (Rattus norvegicus [1]): Not Active

CCOC(=O)COc1ccc(C(=O)c2ccc(O)c(C[N+](C)(C)C)c2)c(Cl)c1Cl.[Cl-]
ED2 (Rattus norvegicus [1]): Not Active

CN(C)Cc1cc(C(=O)c2ccc(OCC(=O)O)c(Cl)c2Cl)cc(CN(C)C)c1O.Cl
ED2 (Rattus norvegicus [1]): Not Active

CCOC(=O)COc1ccc(C(=O)c2cc(I)c(O)c(CN)c2)c(Cl)c1Cl.Cl
ED2 (Rattus norvegicus [2]): 1 mg/kg

CCOC(=O)COc1ccc(C(=O)c2ccc(O)c(CN)c2)cc1.Cl
ED2 (Rattus norvegicus [2]): 10 mg/kg

CCOC(=O)COc1ccc(C(=O)c2cc(Cl)c(O)c(CN)c2)c(Cl)c1Cl.Cl
ED2 (Rattus norvegicus [2]): 1 mg/kg

CCOC(=O)COc1ccc(C(=O)c2ccc(CN)c(OC)c2)c(Cl)c1Cl.Cl
ED2 (Rattus norvegicus [1]): Not Active

CCOC(=O)COc1ccc(C(=O)c2cc(C)c(O)c(CN)c2)c(Cl)c1Cl.Cl
ED2 (Rattus norvegicus [2]): 1 mg/kg

Br.CCOC(=O)COc1ccc(C(=O)c2ccc(OC)c(CN)c2)c(Cl)c1Cl
ED2 (Rattus norvegicus [1]): Not Active

CCOC(=O)COc1ccc(C(=O)c2cccc(CN)c2)c(Cl)c1Cl.Cl
ED2 (Rattus norvegicus [2]): 12 mg/kg

Cl.NCc1cc(C(=O)c2ccc(OCC(=O)O)c(Cl)c2Cl)ccc1O
ED2 (Rattus norvegicus [1]): Not Active

CCOC(=O)COc1ccc(C(=O)c2ccc(O)c(CN(C)C)c2)c(Cl)c1Cl.Cl
ED2 (Rattus norvegicus [2]): 16 mg/kg

CCOC(=O)COc1ccc(C(=O)c2ccc(CN)cc2)c(Cl)c1Cl.Cl
ED2 (Rattus norvegicus [1]): Not Active

CCOC(=O)COc1ccc(C(=O)c2ccc(Cl)c(CN)c2)c(Cl)c1Cl.Cl
ED2 (Rattus norvegicus [2]): 50 mg/kg

CCOC(=O)COc1ccc(C(=O)c2cccc(CN)c2O)c(Cl)c1Cl.Cl
ED2 (Rattus norvegicus [1]): Not Active

CCOC(=O)COc1ccc(C(=O)c2cc(CN3CCCCC3)c(O)c(CN3CCCCC3)c2)c(Cl)c1Cl.Cl
ED2 (Rattus norvegicus [1]): Not Active

CCOC(=O)COc1ccc(C(=O)c2cc(CN)ccc2O)c(Cl)c1Cl.Cl
ED2 (Rattus norvegicus [2]): 3 mg/kg

CCOC(=O)COc1ccc(C(=O)c2ccc(O)c(CN3CCCCC3)c2)c(Cl)c1Cl.Cl
ED2 (Rattus norvegicus [1]): Not Active

CCOC(=O)COc1ccc(C(=O)c2ccc(O)c(CN3CCCC3)c2)c(Cl)c1Cl.Cl
ED2 (Rattus norvegicus [1]): Not Active

CCOC(=O)COc1ccc(C(=O)c2ccc(O)c(C(C)N)c2)c(Cl)c1Cl.Cl (stereo not given)
ED2 (Rattus norvegicus [2]): 1.2 mg/kg

CCOC(=O)COc1ccc(C(=O)c2ccc(O)c(CN)c2)c2ccccc12.Cl
ED2 (Rattus norvegicus [2]): 15 mg/kg

CCOC(=O)COc1ccc(C(=O)c2ccc(O)c(CN(CC)CC)c2)c(Cl)c1Cl.Cl
ED2 (Rattus norvegicus [1]): Not Active

Br.CCOC(=O)COc1ccc(C(=O)c2ccc(CN)c(O)c2)c(Cl)c1Cl
ED2 (Rattus norvegicus [1]): Not Active

CCOC(=O)COc1ccc(C(=O)c2ccc(O)c(CN)c2)cc1Cl.Cl
ED2 (Rattus norvegicus [2]): 5 mg/kg

CCOC(=O)COc1ccc(C(=O)c2ccc(O)c(CN3CCOCC3)c2)c(Cl)c1Cl.Cl
ED2 (Rattus norvegicus [1]): Not Active

CCOC(=O)COc1ccc(C(=O)c2cc(CN3CCCC3)c(O)c(CN3CCCC3)c2)c(Cl)c1Cl.Cl
ED2 (Rattus norvegicus [1]): Not Active

CCOC(=O)COc1ccc(C(=O)c2cc(CN)c(O)c(CN)c2)c(Cl)c1Cl.Cl
ED2 (Rattus norvegicus [2]): 11 mg/kg

CCOC(=O)COc1ccc(C(=O)c2cc(CN(CC)CC)c(O)c(CN(CC)CC)c2)c(Cl)c1Cl.Cl
ED2 (Rattus norvegicus [1]): Not Active

CCOC(=O)COc1ccc(C(=O)c2cc(CN3CCOCC3)c(O)c(CN3CCOCC3)c2)c(Cl)c1Cl.Cl
ED2 (Rattus norvegicus [1]): Not Active

CCOC(=O)COc1ccc(C(=O)c2ccc(O)c(CN)c2)c(Cl)c1.Cl
ED2 (Rattus norvegicus [2]): 5 mg/kg

CCOC(=O)COc1ccc(C(=O)c2ccc(O)c(CNO)c2)c(Cl)c1Cl.Cl
ED2 (Rattus norvegicus [2]): 4 mg/kg

CCOC(=O)COc1ccc(C(=O)c2ccc(O)c(CN)c2)c(C)c1C.Cl
ED2 (Rattus norvegicus [2]): 6 mg/kg

CCOC(=O)COc1ccc(C(=O)c2cc(CN(C)C)c(O)c(CN(C)C)c2)c(Cl)c1Cl.Cl
ED2 (Rattus norvegicus [2]): 7 mg/kg

Cl.NS(=O)(=O)c1cc(C(=O)O)c(NCc2ccco2)cc1Cl [FUROSEMIDE HYDROCHLORIDE]
Change (Rattus norvegicus [3]): -6% | Change (Rattus norvegicus [4]): -10% | Change (Rattus norvegicus [5]): -21% | Change (Rattus norvegicus [6]): -37% | Change (Rattus norvegicus [7]): -3% | Change (Rattus norvegicus [8]): -11% | Change (Rattus norvegicus [9]): -12% | Change (Rattus norvegicus [10]): -31% | Change (Rattus norvegicus [11]): 1%
